For data set [1], the system named is Enterococcus casseliflavus ATCC 700327 (vanC). It is filed as cell-based. As to conditions: ATCC 700327, 18 h. As to the method:
(§1) The minimum inhibitory concentration (MIC) was determined by microdilution following the EUCAST and CLSI guidelines via the broth microdilution assay on a 96-well plate. Substances were dissolved in saline solution (0.9%) at a concentration equimolar to 1.28 mg/mL vancomycin. With an increasing hydrophobicity, some substances had to be pre-dissolved in DMSO. The final concentration of DMSO remained below 1.5% and was compared to the DMSO control (no antimicrobial effect was observed up to the highest concentration tested (10%)). All substances were serially diluted on the 96-well plate using Mueller-Hinton-Broth II (cation adjusted). Vancomycin was always used as a control. For bacterial loading, an overnight culture of the referring strain was taken and adjusted to a turbidity corresponding to 10^8 cfu/mL. The bacterial suspension was further diluted to load a bacterial number of 10^6 cfu/mL on the 96-well plate and incubate it for 18 h at 35 ± 1 °C, as described before. MIC was defined as the lowest concentration without visible growth.

Data set [2] concerns Enterococcus faecium UL602570 (vanA, clinical isolate). It is filed as cell-based. As to the method:
as §1

Data set [3] deals with E. faecium ATCC 51559 (vanA). The format is cell-based, Enterococcus faecium. As to the method:
as §1

Data set [4] has as its system E. faecalis ATCC 51299 (vanB). It is filed as cell-based, Enterococcus faecalis. As to conditions: ATCC 51299, 18 h. The method, then:
as §1

For data set [5], the system named is human blood (red blood cells). As to the kind of experiment: Hemolysis (hemoglobin release assay). The format is cell-based. As to conditions: concentrations above 100 µM, range applied 1-900 µM, 2 h, 37 °C. The method, then:
Hemolytic activity was determined by the hemoglobin release assay on a 96-well plate. Fresh venal blood was collected from volunteers in anticoagulant tubes. The blood samples were centrifuged for 3 min at 2500 rpm, and afterwards, the supernatant was discarded and PBS (pH 7.4) was added. The tubes were gently inverted, and the previous step was repeated two times. Substances were serial two-fold diluted in PBS (pH 7.4) on a 96-well V-bottom plate. Triton X-100 (1% in PBS) was used as a positive control (Xpos). […] In total, 50 µL of the purified blood samples was added to all columns. After 2 h incubation at 37 °C, the 96-well plate was centrifuged at 4000 rpm for 2 min. The supernatant was transferred to a new flat-bottom 96-well plate and absorption was measured at 554 nm. The percentage of hemolysis was calculated according to the following equation:% hemolysis = 100 × (Xsample − Xblank)/(Xpos − Xblank).(1)

Data set [6] concerns human blood (red blood cells). As to conditions: cited from earlier work. The method, then: In order to investigate the hemolytic behavior, human blood from healthy volunteers was taken and exposed to different concentrations of selected conjugates. As a control, unmodified vancomycin, known to have non-hemolytic properties up to 12 mM [40], was used (Figure 4).
The conditions of data set [7]: comparison statement of the abstract, no reference given; cited from earlier work. An excerpt:
Multidrug-resistant bacteria represent one of the most important health care problems worldwide. While there are numerous drugs available for standard therapy, there are only a few compounds capable of serving as a last resort for severe infections. Therefore, approaches to control multidrug-resistant bacteria must be implemented. Here, a strategy of reactivating the established glycopeptide antibiotic vancomycin by structural modification with polycationic peptides and subsequent fatty acid conjugation to overcome the resistance of multidrug-resistant bacteria was followed. This study especia ...

Where [8] appears, read: UL602570 (vanA, clinical isolate, 18 h).

In brackets after ≈: the same amount, converted by molar mass.

As for `CCCCCCCCCCCC(=O)N[C@@H](CCCNC(=N)N)C(=O)N[C@@H](CCCNC(=N)N)C(=O)N[C@@H](CCCNC(=N)N)C(=O)N[C@@H](CSC1CC(=O)N(CC2CCC(C(=O)NCCN[C@@]3(C)C[C@H](O[C@H]4[C@H](Oc5c6cc7cc5Oc5ccc(cc5Cl)[C@@H](O)[C@@H](NC(=O)[C@@H](CC(C)C)NC)C(=O)N[C@@H](CC(N)=O)C(=O)N[C@H]7C(=O)N[C@H]5C(=O)N[C@H](C(=O)N[C@H](C(=O)O)c7cc(O)cc(O)c7-c7cc5ccc7O)[C@H](O)c5ccc(c(Cl)c5)O6)O[C@H](CO)[C@@H](O)[C@@H]4O)O[C@@H](C)[C@H]3O)CC2)C1=O)C(N)=O` (stereo partly drawn) [VV-R3C-C12], the MIC median in data set [1] came to 2.5 µg/mL (≈ 1.01 µM); in data set [2] (setting [8]) it was 0.24 µg/mL (≈ 0.0967 µM); in data set [3] (ATCC 51559, 18 h), 3.88 µg/mL (≈ 1.56 µM); in data set [4], 4 µg/mL (≈ 1.61 µM). The MIC range fell in the range of 0.5 to 4 µg/mL in data set [1]; 0.06 to 0.48 µg/mL in data set [2] (setting [8]); 3.88 to 7.75 µg/mL in data set [3] (ATCC 51559, 18 h).

Turning to `CN[C@H](CC(C)C)C(=O)N[C@H]1C(=O)N[C@@H](CC(N)=O)C(=O)N[C@H]2C(=O)N[C@H]3C(=O)N[C@H](C(=O)N[C@H](C(=O)O)c4cc(O)cc(O)c4-c4cc3ccc4O)[C@H](O)c3ccc(c(Cl)c3)Oc3cc2cc(c3O[C@@H]2O[C@H](CO)[C@@H](O)[C@H](O)[C@H]2O[C@H]2C[C@](C)(N)[C@H](O)[C@H](C)O2)Oc2ccc(cc2Cl)[C@H]1O` [vancomycin], the “hemolytic effect at higher concentrations” value in data set [5] is recorded as “could neither be observed”. In addition, the “non-hemolytic properties up to (concentration)” value in data set [6] is listed as “up to 12 mM”. For the same compound, the “resistance against vancomycin up to (concentration)” value in data set [2] (E. faecium UL602570, vanA clinical isolate) was “up to 640 mg/L”. In data set [7], the excretion route entry is on record as “rapidly excreted by the kidneys”. Further, the “resistant to up to (vancomycin concentration)” value in data set [3] (E. faecium ATCC 51559, vanA) was “up to 1024 mg/L”.

Values taken from publication PMC7345083, “Vancomycin-Lipopeptide Conjugates with High Antimicrobial Activity on Vancomycin-Resistant Enterococci” (Pharmaceuticals, 2020).
